{"source": "patent US20050032149A1", "about": "“Enzyme catalyzed isotope labeling” (priority 2003, published 2005)", "key": {"α-chymotrypsin": {"biological_target": "T1, α-chymotrypsin (Bos taurus, UniProt P00766)", "T1 construct": "purchased Sigma (St. Louis, Mo.); host or cells: bovine pancreas", "experiment": "Chymotryptic digestion of apomyoglobin in H2 18O, 18O2-coding of peptides", "assay_type": "biochemical, Bovine", "conditions": "apomyoglobin 51 nmol, 200 μg α-chymotrypsin, H2 18O pH 8.0, room temperature", "procedure": "Chymotryptic Digestion of Apomyoglobin in H2^18O. An apomyglobin (51 nmol) suspension in H2^18O (24 mM Tris/HCl, pH 8.0) was incubated with 200 μg of α-chymotrypsin (bovine pancreas, Sigma) at room temperature. Aliquots were taken at different time intervals for MALDI-FT-ICR analysis.\nMALDI-FT-ICR Mass Spectrometric Analysis. Reaction mixtures in H2^18O were diluted with 70:30 acetonitrile:water (0.1% TFA) to obtain a final peptide concentration of about 10 pmol/μl. A 0.6 μL aliquot of this solution was applied on the MALDI stainless steel probe followed by 0.6 μL of a solution of 2,5-dihydroxybezoic acid (500 mM) in 70:30 acetonitrile:water (0.1% TFA). The mixture was gently stirred during the crystallization. An FT-ICR instrument equipped with a 4.7 T actively shielded magnet (lonspec Co., Irvine, Calif.) was used for this study. An external MALDI ion source was differentially pumped. A pulsed (5 ns width) Nd:YAG laser (Minilite, Contimuum, Inc., Santa Clara, Calif.) was operated at 355 nm (triple of its fundamental frequency). The laser energy was attenuated by adjusting the angle between two Glan-laser prism polarizers (Karl-Lambrecht Co., Chicago, Ill.). Ions were injected into the ICR cylindrical cell by an RF-only quadrupole ion guide. A 4 ms nitrogen pulse was used to trap the ions and remove their excess of kinetic energy. After a 4 s delay, the ions were excited by a 35 Vb-p RF sweep during 4 ms (29-180 kHz). The image signal was amplified and digitized at an acquisition rate of 2 MHz (512 k data point) resulting in the recording of a 262.1 ms time domain, which gave a typical mass resolution of 10 000. […] In mass spectra, heights for the monoisotope peaks for peptides, the peaks with masses 2 Da higher, and the peaks with masses 4 Da higher were measured as peak intensities I0, I2, and I4, respectively.\nExchange Reactions Catalyzed by Chymotrypsin. Chymotryptic proteolysis of apomyoglobin in H2^18O was analyzed by MALDI-FT-ICR. […]"}, "trypsin [1]": {"biological_target": "T2, trypsin (Sus scrofa, UniProt P00761)", "T2 construct": "purchased Promega (Madison, Wis.)", "T2 sequence (P00761 9-231)": "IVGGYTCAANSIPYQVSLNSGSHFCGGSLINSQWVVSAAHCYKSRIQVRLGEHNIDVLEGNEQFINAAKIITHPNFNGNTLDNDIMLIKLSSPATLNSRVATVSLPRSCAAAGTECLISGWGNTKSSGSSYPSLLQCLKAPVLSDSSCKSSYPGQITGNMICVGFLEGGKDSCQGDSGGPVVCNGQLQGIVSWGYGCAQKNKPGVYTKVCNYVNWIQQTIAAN", "experiment": "Kinetics of 16O-to-18O exchange of YGGFMK and YGGFMR catalyzed by trypsin (MALDI-FT-ICR-MS)", "assay_type": "biochemical", "procedure": "Kinetics Measurement of ^16O-to-^18O Exchange of YGGFMK and YGGFMR Catalyzed by Trypsin. […] Aliquots of the reaction mixture were taken at different time intervals for the first 10% of reactant conversion. The reaction temperature was maintained at 26±1° C., and the ionic strength was controlled by NaCl (45 mM). The reaction volume was typically 20 μL. The change of the peak intensity for the peptide was monitored by MALDI-FT-ICR-MS. Substrate concentrations used in the kinetics studies ranged between 0.2 KM and 5 KM, and measurements were duplicated for each substrate concentration. At high concentrations (>10 mM) of YGGFMK, acetonitrile (10% v/v) was used to increase the substrate solubility in reaction buffer. A full course of ^16O-to-^18O exchange reaction of YGGFMR was also recorded using similar conditions.\nMALDI-FT-ICR Mass Spectrometric Analysis. Reaction mixtures in H2^18O were diluted with 70:30 acetonitrile:water (0.1% TFA) to obtain a final peptide concentration of about 10 pmol/μl. A 0.6 μL aliquot of this solution was applied on the MALDI stainless steel probe followed by 0.6 μL of a solution of 2,5-dihydroxybezoic acid (500 mM) in 70:30 acetonitrile:water (0.1% TFA). The mixture was gently stirred during the crystallization. An FT-ICR instrument equipped with a 4.7 T actively shielded magnet (lonspec Co., Irvine, Calif.) was used for this study. An external MALDI ion source was differentially pumped. A pulsed (5 ns width) Nd:YAG laser (Minilite, Contimuum, Inc., Santa Clara, Calif.) was operated at 355 nm (triple of its fundamental frequency). The laser energy was attenuated by adjusting the angle between two Glan-laser prism polarizers (Karl-Lambrecht Co., Chicago, Ill.). Ions were injected into the ICR cylindrical cell by an RF-only quadrupole ion guide. A 4 ms nitrogen pulse was used to trap the ions and remove their excess of kinetic energy. After a 4 s delay, the ions were excited by a 35 Vb-p RF sweep during 4 ms (29-180 kHz). The image signal was amplified and digitized at an acquisition rate of 2 MHz (512 k data point) resulting in the recording of a 262.1 ms time domain, which gave a typical mass resolution of 10 000. The average of single time domain transients (more than 10 times) was Fourier transformed into the corresponding frequency domain (two zero fills and Blackman apodization).\nMALDI-FT-ICR Mass Spectrometric Analysis of ^16O-to-^18O Exchange Reactions. […] The residual ^16O content in H2^18O (less than 5%) was not considered in formulation of the equation.\nKinetic Constants for ^16O-to-^18O Exchange of YGGFMK and YGGFMR Catalyzed by Trypsin. […] The time course for the first 10% of the reaction was limited to less than 30 min by adjusting the concentration of trypsin.\nFrom the plots, values for kcat's, KM's, and kcat/KM's were calculated."}, "trypsin [2]": {"biological_target": "T2, trypsin", "experiment": "Control experiment: non-Arg/Lys-terminated peptides incubated with trypsin in H2 18O", "assay_type": "biochemical", "conditions": "mixture VEPIPY 710 μM and YGGFM 500 μM, 200 mM Tris, 2 μg trypsin, H2 18O pH 8.5, room temperature overnight", "procedure": "For the process of ^18O2-coding of Arg- and Lys-terminated peptides through two exchange reactions, a sequential mechanism (FIG. 7) is supported by the kinetics shown in FIG. 5. Trypsin-catalyzed exchange reactions are substrate-specific; only peptides with Arg or Lys in the P1 position can undergo exchanges catalyzed by trypsin. As a control experiment, a mixture of VEPIPY (710 μM) and YGGFM (500 μM) was incubated with 200 mM Tris and 2 μg trypsin in H2^18O (pH 8.5) at room-temperature overnight. […] Thus, there was not significant catalysis from either the enzyme or the buffer."}, "[3]": {"conditions": "trypsin-catalyzed 16O-to-18O exchange, double reciprocal plot, pH 8.0, 26±1° C."}}}
{"substance": "TGHPETLEKF [CT4, Chymotryptic peptide of apomyoglobin]", "values": [{"measurement": "time to complete 18O2-coding", "setting": "α-chymotrypsin", "value": 3.5, "unit": "h"}]}
{"substance": "YGGFMR", "values": [{"measurement": "Km", "setting": "trypsin [1]; [3]", "value": "1.3 ± 0.3", "unit": "mM"}, {"measurement": "kcat", "setting": "trypsin [1]; [3]", "value": "3500 ± 500", "unit": "min⁻¹"}, {"measurement": "Km", "setting": "trypsin [1]; trypsin-catalyzed exchange", "value": 1.3, "unit": "mM"}, {"measurement": "kcat", "setting": "trypsin [1]; trypsin-catalyzed exchange", "value": "3500+−500 per min"}]}
{"substance": "YGGFMK", "values": [{"measurement": "Km", "setting": "trypsin [1]; [3]", "value": "4.4 ± 0.7", "unit": "mM"}, {"measurement": "kcat", "setting": "trypsin [1]; [3]", "value": "2800 ± 300", "unit": "min⁻¹"}, {"measurement": "Km", "setting": "trypsin [1]; trypsin-catalyzed exchange", "value": 4.4, "unit": "mM"}, {"measurement": "kcat", "setting": "trypsin [1]; trypsin-catalyzed exchange", "value": "2800+−300 per min"}]}
{"substance": "VEPIPY", "values": [{"measurement": "exchange of oxygens", "setting": "trypsin [2]", "value": "No detectable exchange of oxygens"}]}
{"substance": "YGGFM", "values": [{"measurement": "exchange of oxygens", "setting": "trypsin [2]", "value": "No detectable exchange of oxygens"}]}
{"substance": "RNDIMKY [CT10, Chymotryptic peptide of apomyoglobin]", "values": [{"measurement": "time to complete 18O2-coding", "setting": "α-chymotrypsin", "value": 1.5, "unit": "h"}]}
{"substance": "GADAQGAMTKALELF [CT9, Chymotryptic peptide of apomyoglobin]", "values": [{"measurement": "time to complete 18O2-coding", "setting": "α-chymotrypsin", "value": 20, "unit": "h"}]}
